Laboratory results as given in the supplement of paper PMC10307832.

How the values were obtained:
Assay in all cases: relative viability (nuclei count vs DMSO), 5 days (fraction); higher = more cells survive
Entinostat + Tozasertib = compound: Nc1ccccc1NC(=O)c1ccc(CNC(=O)OCc2cccnc2)cc1 [Entinostat] + Cc1cc(Nc2cc(N3CCN(C)CC3)nc(Sc3ccc(NC(=O)C4CC4)cc3)n2)n[nH]1 [Tozasertib] (partner 0.1 µM)
Outline: (§1)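 After 5 days of treatment, lung cancer cells in 1536-well plates were fixed and stained in a single step (final 0.05% Triton X-100, 1% formaldehyde, 1 ug/ml Hoechst) and their nuclei counted on 4× images. Treatment had been applied by pin tool the day after seeding as one drug alone or as a fixed anchor-drug dose with five library-drug doses (not always all listed) in √10 steps. Relative viability is the nuclei count of treated wells divided by that of vehicle wells, and values are medians of duplicate plates.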

[1] = compound: C1COCCN1C2=NC(=NC3=C2OC4=C3C=CC=N4)C5=CC(=CC=C5)NC(=O)C6=CN=C(C=C6)N + Nc1nc2[nH]cc(CCc3ccc(C(=O)N[C@@H](CCC(=O)O)C(=O)O)cc3)c2c(=O)[nH]1 [Pemetrexed] (partner 0.2 µM)
Outline: as §1

[2] = compound: C1COCCN1C2=NC(=NC3=C2OC4=C3C=CC=N4)C5=CC(=CC=C5)NC(=O)C6=CN=C(C=C6)N + O=C(CCCCCCC(=O)Nc1ccccc1)NO [Vorinostat] (partner 1 µM)
Outline: as §1

Entinostat + Olaparib = compound: Nc1ccccc1NC(=O)c1ccc(CNC(=O)OCc2cccnc2)cc1 [Entinostat] + O=C(c1cc(Cc2n[nH]c(=O)c3ccccc23)ccc1F)N1CCN(C(=O)C2CC2)CC1 [Olaparib] (partner 8 µM)
Outline: as §1

Cell Line | relative viability (Entinostat + Tozasertib; first compound 0.02 µM) | relative viability (Entinostat + Tozasertib; first compound 0.06325 µM) | relative viability (Entinostat + Tozasertib; first compound 0.2 µM) | relative viability (Entinostat + Tozasertib; first compound 0.6325 µM) | relative viability (Entinostat + Tozasertib; first compound 2 µM) | relative viability ([1]; first compound 0.02 µM) | relative viability ([1]; first compound 0.06325 µM) | relative viability ([1]; first compound 0.2 µM) | relative viability ([1]; first compound 0.6325 µM) | relative viability ([1]; first compound 2 µM) | relative viability ([2]; first compound 0.02 µM) | relative viability ([2]; first compound 0.06325 µM) | relative viability ([2]; first compound 0.2 µM) | relative viability ([2]; first compound 0.6325 µM) | relative viability ([2]; first compound 2 µM) | relative viability (Entinostat + Olaparib; first compound 0.02 µM) | relative viability (Entinostat + Olaparib; first compound 0.06325 µM) | relative viability (Entinostat + Olaparib; first compound 0.2 µM) | relative viability (Entinostat + Olaparib; first compound 0.6325 µM) | relative viability (Entinostat + Olaparib; first compound 2 µM)
HCC-366 | 0.0983 | 0.0503 | 0.0518 | 0.0518 | 0.0252 | 0.186 | 0.189 | 0.195 | 0.219 | 0.0985 | 0.395 | 0.36 | 0.327 | 0.444 | 0.249 | 0.343 | 0.311 | 0.212 | 0.132 | 0.0516
NCI-H2087 | 0.222 | 0.219 | 0.177 | 0.116 | 0.0873 | 0.653 | 0.611 | 0.61 | 0.619 | 0.258 | 0.611 | 0.911 | 0.842 | 0.724 | 0.199 | 0.498 | 0.554 | 0.511 | 0.329 | 0.206
NCI-H522 | 0.576 | 0.509 | 0.516 | 0.48 | 0.371 | 0.915 | 0.966 | 0.941 | 0.972 | 0.963 | 0.831 | 0.844 | 0.925 | 0.865 | 0.798 | 0.58 | 0.713 | 0.582 | 0.686 | 0.494
PC-3 [JPC-3] | 0.898 | 0.786 | 0.685 | 0.59 | 0.326 | 1.21 | 1.09 | – | 1.08 | 1.17 | 0.729 | 0.678 | – | 0.662 | 0.638 | 1.14 | 1.12 | 1.04 | 0.663 | 0.456
HOP-62 | 0.355 | 0.312 | 0.304 | 0.228 | 0.152 | 0.298 | 0.3 | 0.301 | 0.29 | 0.162 | 0.753 | 0.768 | 0.674 | 0.58 | 0.373 | 0.36 | 0.391 | 0.373 | 0.147 | 0.128
NCI-H2126 | 0.812 | 0.758 | 0.614 | 0.38 | 0.262 | 0.706 | 0.784 | 0.674 | 0.629 | 0.559 | 0.707 | 0.941 | 0.758 | 0.786 | 0.582 | 0.953 | 0.925 | 0.886 | 0.742 | 0.539
NCI-H1793 | 0.309 | 0.308 | 0.284 | 0.205 | 0.175 | 0.818 | 0.86 | 0.626 | 0.621 | 0.632 | 0.61 | 0.846 | 0.571 | 0.59 | 0.574 | 0.929 | 0.959 | 0.743 | 0.681 | 0.236
RERF-LC-KJ | 0.417 | 0.4 | 0.349 | 0.215 | 0.198 | 0.507 | 0.46 | 0.484 | 0.457 | 0.376 | 0.696 | 0.782 | 0.653 | 0.603 | 0.598 | 0.901 | 0.903 | 0.795 | 0.373 | 0.282
H3255 | 0.48 | 0.468 | 0.503 | 0.315 | 0.204 | 0.507 | 0.558 | 0.528 | 0.524 | 0.491 | 0.814 | 0.744 | 0.788 | 0.781 | 0.698 | 0.606 | 0.51 | 0.454 | 0.364 | 0.308
EMC-BAC-2 | 0.302 | 0.254 | 0.228 | 0.17 | 0.229 | 0.458 | 0.462 | 0.465 | 0.462 | 0.444 | 0.533 | 0.376 | 0.329 | 0.413 | 0.419 | 0.48 | 0.444 | 0.388 | 0.3 | 0.23
SW 900 | 0.573 | 0.62 | 0.515 | 0.282 | 0.206 | 0.497 | 0.476 | 0.455 | 0.469 | 0.254 | 0.455 | 0.573 | 0.488 | 0.425 | 0.392 | 0.857 | 0.815 | 0.902 | 0.616 | 0.355
CAL-12T | 0.284 | 0.364 | 0.319 | 0.186 | 0.206 | 1.2 | 1.27 | 1.17 | 1.32 | 0.412 | 0.789 | 1 | 0.769 | 0.601 | 0.431 | 0.728 | 0.781 | 0.854 | 0.767 | 0.572
NCI-H661 | 0.339 | 0.332 | 0.282 | 0.334 | 0.396 | 0.923 | 0.918 | 0.889 | 0.921 | 0.602 | 0.766 | 0.803 | 0.769 | 0.806 | 0.529 | 0.696 | 0.721 | 0.641 | 0.567 | 0.339
SK-MES-1 | 0.849 | 0.826 | 0.925 | 0.673 | 0.324 | 0.984 | 0.958 | 0.827 | 0.86 | 0.646 | 1.12 | 1.22 | 1.09 | 1.03 | 0.72 | 0.576 | 0.646 | 0.801 | 0.596 | 0.467
NCI-H1437 | 0.31 | 0.253 | 0.181 | 0.132 | 0.108 | 0.339 | 0.311 | 0.308 | 0.366 | 0.254 | 0.82 | 0.919 | 0.818 | 0.816 | 0.432 | 0.491 | 0.378 | 0.309 | 0.228 | 0.196
PC-14 | 0.56 | 0.629 | 0.325 | 0.104 | 0.0609 | 0.14 | 0.135 | 0.129 | 0.0787 | 0.0733 | 0.784 | 0.816 | 0.648 | 0.603 | 0.362 | 0.291 | 0.294 | 0.321 | 0.104 | 0.0475
